Laboratory results as given in US9783532B2, “Molecules having certain pesticidal utilities, and intermediates, compositions, and processes related thereto” (Dow AgroSciences LLC, priority 2013, dated 2017).

Experiments:
[1] = test system: Beet Armyworm (Spodoptera exigua) ("BAW"); assay: Bioassay on beet armyworm (BAW), 128-well diet tray assay; format: in vivo; conditions: 168 h, 50 μg/cm^2 on artificial diet, second instar BAW larvae, 25° C., five to seven days, average of eight wells, read-out: BAW % Control (or Mortality) rating
Outline: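 Percent mortality, averaged across eight wells, was read after five to seven days at 25° C. under 14:10 light-dark. Each well held one to five second-instar larvae on artificial diet that had been treated with 50 μg/cm^2 compound in 90:10 acetone-water and dried.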

[2] = test system: Cabbage Looper (Trichoplusia ni) ("CL"); assay: Bioassay on cabbage looper (CL), 128-well diet tray assay; format: in vivo; conditions: 168 h, 50 μg/cm^2 on artificial diet, second instar CL larvae, 25° C., five to seven days, average of eight wells, read-out: CL % Control (or Mortality) rating
Outline: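 Percent mortality, averaged across eight replicate wells, was read after five to seven days at 25 °C under a 14:10 photoperiod. Each well held one to five second-instar T. ni on diet carrying a dried 50 μg/cm^2 dose applied in acetone-water 90:10.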

Row | Compound | mortality at 50 µg/cm2 [1] [%] | mortality at 50 µg/cm2 [2] [%]
1 | CCCc1ccc(C)cc1N1C(=O)CS/C1=N\C(=O)NCc1ccc(-c2ncn(-c3ccc(OC(F)(F)F)cc3)n2)cc1 [P8, P852, (Z)-1-(3-(5-methyl-2-propylphenyl)-4-oxothiazolidin-2-ylidene)-3-(4-(1-(4-(trifluoromethoxy)phenyl)-1H-1,2,4-triazol-3-yl)benzyl)urea] | 50 to 100 | 50 to 100
2 | CC(C)c1ccccc1N1C(=O)CS/C1=N\C(=O)NCc1ccc(-c2ncn(-c3ccc(C(F)(F)F)cc3)n2)cc1 [P14, (Z)-1-(3-(2-isopropylphenyl)-4-oxothiazolidin-2-ylidene)-3-(4-(1-(4-(trifluoromethyl)phenyl)-1H-1,2,4-triazol-3-yl)benzyl)urea] | 50 to 100 | 50 to 100
3 | Cc1ccc(N2C(=O)CS/C2=N\C(=O)NCc2ccc(-c3ncn(-c4ccc(C(F)(F)F)cc4)n3)cc2)c(C(C)C)c1 [P15, (Z)-1-(3-(2-isopropyl-4-methylphenyl)-4-oxothiazolidin-2-ylidene)-3-(4-(1-(4-(trifluoromethyl)phenyl)-1H-1,2,4-triazol-3-yl)benzyl)urea] | 50 to 100 | 50 to 100
4 | Cc1ccc(C(C)C)c(N2/C(=N/C(=O)NCCc3ccc(-c4ncn(-c5ccc(OC(F)(F)F)cc5)n4)cc3)SCC2C)c1 (stereo not drawn) [P58, (Z)-1-(3-(2-isopropyl-5-methylphenyl)-4-methylthiazolidin-2-ylidene)-3-(4-(1-(4-(trifluoromethoxy)phenyl)-1H-1,2,4-triazol-3-yl)phenethyl)urea] | 50 to 100 | 50 to 100
5 | Cc1ccc(C(C)C)c(N2CCCS/C2=N\C(=O)NCCc2ccc(-c3ncn(-c4ccc(OC(F)(F)F)cc4)n3)cc2)c1 [P59, (Z)-1-(3-(2-isopropyl-5-methylphenyl)-1,3-thiazinan-2-ylidene)-3-(4-(1-(4-(trifluoromethoxy)phenyl)-1H-1,2,4-triazol-3-yl)phenethyl)urea] | 50 to 100 | 50 to 100
6 | Cc1ccc(C(C)C)c(N2CC(C)CS/C2=N\C(=O)NCCc2ccc(-c3ncn(-c4ccc(OC(F)(F)F)cc4)n3)cc2)c1 (stereo not drawn) [P64] | 50 to 100 | 50 to 100
7 | Cc1ccccc1N1C(=O)CS/C1=N\C(=O)NCCc1cccc(-c2ncn(-c3ccc(OC(F)(F)F)cc3)n2)c1 [P74, (Z)-1-(4-oxo-3-(o-tolyl)thiazolidin-2-ylidene)-3-(3-(1-(4-(trifluoromethoxy)phenyl)-1H-1,2,4-triazol-3-yl)phenethyl)urea] | 50 to 100 | 50 to 100
8 | CCc1ccccc1N1C(=O)CS/C1=N\C(=O)NCCc1cccc(-c2ncn(-c3ccc(OC(F)(F)F)cc3)n2)c1 [P75, (Z)-1-(3-(2-ethylphenyl)-4-oxothiazolidin-2-ylidene)-3-(3-(1-(4-(trifluoromethoxy)phenyl)-1H-1,2,4-triazol-3-yl)phenethyl)urea] | 50 to 100 | 50 to 100
9 | CC(C)c1ccccc1N1C(=O)CS/C1=N\C(=O)NCCc1cccc(-c2ncn(-c3ccc(OC(F)(F)F)cc3)n2)c1 [P76, (Z)-1-(3-(2-isopropylphenyl)-4-oxothiazolidin-2-ylidene)-3-(3-(1-(4-(trifluoromethoxy)phenyl)-1H-1,2,4-triazol-3-yl)phenethyl)urea] | 50 to 100 | 50 to 100
10 | CCCc1ccc(C)cc1N1C(=O)CS/C1=N\C(=O)NCCc1cccc(-c2ncn(-c3ccc(OC(F)(F)F)cc3)n2)c1 [P80, (Z)-1-(3-(5-methyl-2-propylphenyl)-4-oxothiazolidin-2-ylidene)-3-(3-(1-(4-(trifluoromethoxy)phenyl)-1H-1,2,4-triazol-3-yl)phenethyl)urea] | 50 to 100 | 50 to 100
11 | CCc1cccc(C)c1N1C(=O)CS/C1=N\C(=O)NCCc1cccc(-c2ncn(-c3ccc(OC(F)(F)F)cc3)n2)c1 [P83, (Z)-1-(3-(2-ethyl-6-methylphenyl)-4-oxothiazolidin-2-ylidene)-3-(3-(1-(4-(trifluoromethoxy)phenyl)-1H-1,2,4-triazol-3-yl)phenethyl)urea] | 50 to 100 | 50 to 100
12 | Cc1ccc(N2C(=O)CS/C2=N\C(=O)NCCc2cccc(-c3ncn(-c4ccc(OC(F)(F)F)cc4)n3)c2)c(C(C)C)c1 [P84, (Z)-1-(3-(2-isopropyl-4-methylphenyl)-4-oxothiazolidin-2-ylidene)-3-(3-(1-(4-(trifluoromethoxy)phenyl)-1H-1,2,4-triazol-3-yl)phenethyl)urea] | 50 to 100 | 50 to 100
13 | CC(C)c1cc(F)ccc1N1C(=O)CS/C1=N\C(=O)NCCc1cccc(-c2ncn(-c3ccc(OC(F)(F)F)cc3)n2)c1 [P85, (Z)-1-(3-(4-fluoro-2-isopropylphenyl)-4-oxothiazolidin-2-ylidene)-3-(3-(1-(4-(trifluoromethoxy)phenyl)-1H-1,2,4-triazol-3-yl)phenethyl)urea] | 50 to 100 | 50 to 100
14 | COc1ccc(N2C(=O)CS/C2=N\C(=O)NCCc2cccc(-c3ncn(-c4ccc(OC(F)(F)F)cc4)n3)c2)c(C)c1 [P87, (Z)-1-(3-(4-methoxy-2-methylphenyl)-4-oxothiazolidin-2-ylidene)-3-(3-(1-(4-(trifluoromethoxy)phenyl)-1H-1,2,4-triazol-3-yl)phenethyl)urea] | 50 to 100 | 50 to 100
15 | Cc1ccccc1N1C(=O)CS/C1=N\C(=O)NCCCc1ccc(-c2ncn(-c3ccc(OC(F)(F)F)cc3)n2)cc1 [P92, (Z)-1-(4-oxo-3-(o-tolyl)thiazolidin-2-ylidene)-3-(3-(4-(1-(4-(trifluoromethoxy)phenyl)-1H-1,2,4-triazol-3-yl)phenyl)propyl)urea] | 50 to 100 | 50 to 100
16 | CCc1ccccc1N1C(=O)CS/C1=N\C(=O)NCCCc1ccc(-c2ncn(-c3ccc(OC(F)(F)F)cc3)n2)cc1 [P93, P510, (Z)-1-(3-(2-ethylphenyl)-4-oxothiazolidin-2-ylidene)-3-(3-(4-(1-(4-(trifluoromethoxy)phenyl)-1H-1,2,4-triazol-3-yl)phenyl)propyl)urea] | 50 to 100 | 50 to 100
17 | CC(C)c1ccccc1N1C(=O)CS/C1=N\C(=O)NCCCc1ccc(-c2ncn(-c3ccc(OC(F)(F)F)cc3)n2)cc1 [P94, P197, (Z)-1-(3-(2-isopropylphenyl)-4-oxothiazolidin-2-ylidene)-3-(3-(4-(1-(4-(trifluoromethoxy)phenyl)-1H-1,2,4-triazol-3-yl)phenyl)propyl)urea] | 50 to 100 | 50 to 100
18 | CCCc1ccc(C)cc1N1C(=O)CS/C1=N\C(=O)NCCCc1ccc(-c2ncn(-c3ccc(OC(F)(F)F)cc3)n2)cc1 [P99, P830, (Z)-1-(3-(5-methyl-2-propylphenyl)-4-oxothiazolidin-2-ylidene)-3-(3-(4-(1-(4-(trifluoromethoxy)phenyl)-1H-1,2,4-triazol-3-yl)phenyl)propyl)urea] | 50 to 100 | 50 to 100
19 | Cc1ccc(N2C(=O)CS/C2=N\C(=O)NCCCc2ccc(-c3ncn(-c4ccc(OC(F)(F)F)cc4)n3)cc2)c(C(C)C)c1 [P102, (Z)-1-(3-(2-isopropyl-4-methylphenyl)-4-oxothiazolidin-2-ylidene)-3-(3-(4-(1-(4-(trifluoromethoxy)phenyl)-1H-1,2,4-triazol-3-yl)phenyl)propyl)urea] | 50 to 100 | 50 to 100
20 | CC(C)c1cc(F)ccc1N1C(=O)CS/C1=N\C(=O)NCCCc1ccc(-c2ncn(-c3ccc(OC(F)(F)F)cc3)n2)cc1 [P103, P1150, (Z)-1-(3-(4-fluoro-2-isopropylphenyl)-4-oxothiazolidin-2-ylidene)-3-(3-(4-(1-(4-(trifluoromethoxy)phenyl)-1H-1,2,4-triazol-3-yl)phenyl)propyl)urea] | 50 to 100 | 50 to 100
21 | COc1ccc(N2C(=O)CS/C2=N\C(=O)NCCCc2ccc(-c3ncn(-c4ccc(OC(F)(F)F)cc4)n3)cc2)c(C)c1 [P105, (Z)-1-(3-(4-methoxy-2-methylphenyl)-4-oxothiazolidin-2-ylidene)-3-(3-(4-(1-(4-(trifluoromethoxy)phenyl)-1H-1,2,4-triazol-3-yl)phenyl)propyl)urea] | 50 to 100 | 50 to 100
22 | Cc1ccccc1N1C(=O)CS/C1=N\C(=O)NCCCc1cccc(-c2ncn(-c3ccc(OC(F)(F)F)cc3)n2)c1 [P118, (Z)-1-(4-oxo-3-(o-tolyl)thiazolidin-2-ylidene)-3-(3-(3-(1-(4-(trifluoromethoxy)phenyl)-1H-1,2,4-triazol-3-yl)phenyl)propyl)urea] | 50 to 100 | 50 to 100
23 | CCc1ccccc1N1C(=O)CS/C1=N\C(=O)NCCCc1cccc(-c2ncn(-c3ccc(OC(F)(F)F)cc3)n2)c1 [P119, (Z)-1-(3-(2-ethylphenyl)-4-oxothiazolidin-2-ylidene)-3-(3-(3-(1-(4-(trifluoromethoxy)phenyl)-1H-1,2,4-triazol-3-yl)phenyl)propyl)urea] | 50 to 100 | 50 to 100
24 | CC(C)c1ccccc1N1C(=O)CS/C1=N\C(=O)NCCCc1cccc(-c2ncn(-c3ccc(OC(F)(F)F)cc3)n2)c1 [P120, (Z)-1-(3-(2-isopropylphenyl)-4-oxothiazolidin-2-ylidene)-3-(3-(3-(1-(4-(trifluoromethoxy)phenyl)-1H-1,2,4-triazol-3-yl)phenyl)propyl)urea] | 50 to 100 | 50 to 100
